# Experimental data published in US20120065181A1, “METHOD OF PROVIDING NEUROPROTECTION USING SUBSTITUTED PORPHYRINS” (priority 2009, published 2012).
# Tests used:
# NF-κB = experiment: EMSA of NF-κB DNA binding in nuclear extracts of ischemic brain after MCAO; format: in vivo, rat; details: 225 μg/kg IV after 90 min MCAO, ischemic brain harvested six hr later, 2 treated vs 2 vehicle rats
# Procedure: (§1) Intravenous MnTnHex-2-PyP^5+ (hexyl) decreases post-ischemic NF-κB DNA binding to a κB consensus oligo due inhibition of NF-κB p65 nuclear translocation. Data are from 4 rats subjected to 90 min MCAO and then treated with vehicle or MnTnHex-2-PyP^5+ (225 μg/kg IV). Six hr later, ischemic brain was harvested for EMSA performed on nuclear extracts ([…]). Upper gel (EMSA): D and E (without and with p65 antibody, respectively) are rat #1 (vehicle). F and G (without and with p65 antibody, respectively) are rat #2 (hexyl). H and I=vehicle rat #3 (with and without p65). J and K=rat #4 (hexyl) with and without p65. A-C are control lanes (A=probe only, B=positive control (HeLa nuclear extract), C=cold competitor). Two slower migrating DNA binding complexes are observed (shift). The proteins in the slower migrating complexes were identified by super shift analysis with […] of p65-specific antibody. […] Lower gel: […]) from the same nuclear samples were immunoblotted with NF-κB p65-specific antibody, confirming NF-κB inhibition by MnTnHex-2-PyP^5+.
# NF-κB p65 = experiment: Immunoblot of nuclear samples with NF-κB p65-specific antibody after MCAO; format: in vivo, rat; details: 225 μg/kg IV after 90 min MCAO; ischemic brain harvested six hr later
# Procedure: as §1
# [1] = tested on: rats subjected to 90 min MCAO; experiment: Cerebral infarct volume after 90 min MCAO; format: in vivo, rat; details: 7 days after MCAO
# Source text: (§2) Male Wistar rats (250-275 gm; Harlan Sprague Dawley, Inc. Indianapolis, Ind.) were anesthetized with 64-mg/kg intraperitoneal sodium pentobarbital and positioned in a stereotactic head frame. The skin was infiltrated with 1.0% lidocaine and a midline scalp incision was made. A burr hole was drilled over the left hemisphere, 7.2 mm anterior to the interauralline and 1.4 mm lateral to the sagittal suture. An intracerebroventricular (ICV) cannula (33 gauge) was positioned with the tip in the left lateral ventricle and fixed in place with screws and cyanoacrylate. The incision was closed with suture around this assembly. After emergence from anesthesia, the animals were returned to their cages with free access to water and food.
# Following 2-3 days recovery, rats were allowed access to water but fasted from food for 12 hours to standardize glycemic state. Rats were then anesthetized with isoflurane in O2. Following tracheal intubation, the lungs were mechanically ventilated to maintain normocapnia. A 22-g needle thermistor was percutaneously placed adjacent to the skull beneath the temporalis. Pericranial temperature was servoregulated at 37.5±0.1° C. by surface heating or cooling. The inspired isoflurane concentration was adjusted to 1.0-1.5% in 50% O2/balance N2. The tail artery was cannulated. The animals were then prepared for MCAO as previously described [Mackensen et al. J. Neurosci. 21:4582-4592, 2001; Longa et al. Stroke 20:84-91, 1989]. A midline cervical incision was made and the right common carotid artery was identified. […] The internal carotid artery (ICA) was dissected distally until the origin of the pterygopalatine artery was visualized. Following surgical preparation, a 20 min interval was allowed for physiologic stabilization.
# Five min before MCAO onset, heparin (50 IU intra-arterial) was given to prevent intra-arterial thrombosis. A 0.25-mm diameter nylon monofilament, prepared with a silicone tip, was inserted into the ECA stump and passed distally through the ICA (20 mm from carotid bifurcation) until resistance was felt and the filament was secured. At MCAO onset, isoflurane was reduced to 0.8-1.0%.
# After 90 min of MCAO, the occlusive filament was removed. The anesthetic state and pericranial temperature regulation were continued for an additional 100 min. The tail artery catheter was removed and the wounds were closed with suture. Isoflurane was discontinued. Upon recovery of the righting reflex, the tracheas were extubated and the animals were placed in an O2 enriched environment (FIO2=50%) for 1 hour. Animals were then randomized to experimental groups (see below).
# Animals were weighed, anesthetized with isoflurane, and decapitated. The brains were removed, frozen at −40° C. in 2-methylbutane, and stored at −70° C. Infarct volume was measured by comparing the volume of histologically normal tissue observed in the ischemic hemisphere to the expected volume of normal tissue as derived from measurements of the contralateral, non-ischemic hemisphere [Swanson et al. J. Cereb. Blood Flow Metab. 10:290-293, 1990]. Serial quadruplicate […] coronal sections were taken using a cryotome at […] over the rostral-caudal extent of the infarct. The sections were dried and stained with hematoxylin and eosin. A section from each 660-μm interval was digitized with a video camera controlled by an image analyzer. […] With the observer blinded to experimental condition, the following regions of interest (ROI) were cursor outlined: non-infarcted ipsilateral cerebral cortex, non-infarcted ipsilateral subcortex, contralateral cerebral cortex, and contralateral subcortex. The area within each ROI (mm2) was determined by automated counting of calibrated pixels. Ipsilateral non-infarcted cortex and subcortex areas were subtracted from the corresponding contralateral ROI values to estimate the area of ischemic tissue damage to control for brain edema [Lin et al. Stroke 24:117-121, 1993]. […]
# [2] = tested on: rats subjected to 90 min MCAO; experiment: Neurologic score after 90 min middle cerebral artery occlusion (MCAO); format: in vivo, rat; details: then twice daily s.c. for 7 days
# Source text: as §2
# Following 2-3 days recovery, rats were allowed access to water but fasted from food for 12 hours to standardize glycemic state. Rats were then anesthetized with isoflurane in O2. Following tracheal intubation, the lungs were mechanically ventilated to maintain normocapnia. A 22-g needle thermistor was percutaneously placed adjacent to the skull beneath the temporalis. Pericranial temperature was servoregulated at 37.5±0.1° C. by surface heating or cooling. […]
# Rats were subjected to 90 min middle cerebral artery occlusion. […] The doses were repeatedly twice daily as subcutaneous injections for 7 days after which neurologic function was assessed as described above. […]
# TNF-α = experiment: Cerebral TNF-α level by ELISA after MCAO; format: in vivo, rat; details: 225 μg/kg IV 5 min after reperfusion, s.c. at 12 and 18 hrs post-MCAO; brains harvested 24 hrs post-MCAO; n=3; P=0.04
# Procedure: (§3) Rats were subjected to 90 min middle cerebral artery occlusion. Five min after onset of reperfusion, rats were randomly treated with vehicle (n=3) or 225 μg/kg IV MnTnHex-2-PyP^5+ (n=3) followed by subcutaneous vehicle or 225 μg/kg MnTnHex-2-PyP^5+, respectively, at 12 and 18 hrs post-MCAO. Brains were harvested at 24 hrs post-MCAO and analyzed for TNF-α and IL-6 by fluorescent enzyme-linked immunosorbent assay. Whole cell lysates from the whole brain tissue were obtained at the end of each experiment according to manufacture's protocol (Roche) with light modification. In brief, about 100 mg of brain tissue, which was diced into small pieces using a clean razor blade on ice, was placed into a pre-chilled microcentrifuge tube and further processed with […] of ice-cold lysis buffer (50 mM Tris-HCl, pH 7.5, 150 mM NaCl, 1% Nonidet P40, 0.5% sodium deoxycholat, 0.1% SDS, protease inhibitors). Samples were homogenized 10 seconds and incubated for 30 minutes on ice. Homogenates were centrifuged at 14,000 g for 10 minutes at 4° C. Supernatants were collected and proteins were measured by a BCA Protein Assay Kit (Thermo Scientific). Cerebral levels of TNF-α and IL-6 were determined by rat specific ELISA kits (Thermo Scientific, IL) and normalized by the total amount of proteins (pg/mg).
# IL-6 = experiment: Cerebral IL-6 level by ELISA after MCAO; format: in vivo, rat; details: 225 μg/kg IV 5 min after reperfusion, s.c. at 12 and 18 hrs post-MCAO; brains harvested 24 hrs post-MCAO; n=3; P=0.04
# Procedure: as §3
# [3] = tested on: subarachnoid hemorrhage (SAH) in mice; experiment: Neurologic evaluation after murine subarachnoid hemorrhage (endovascular perforation); format: in vivo
# Source text: At completion of the predefined recovery interval, rats underwent a neurologic examination to evaluate sensorimotor function. The neurological scoring system evaluates four different functions (general status, simple motor deficit, complex motor deficit, and sensory deficit). The score given to each animal (by an observer blinded to group assignment) was the sum of all four individual scores, 0 being the minimum (best) score and 48 being the maximum (worst) score. This examination was developed combining features from several neurologic evaluations reported for rat MCAO and has been used in two long-term MCAO outcome studies to assess for differences in treatment outcome (Yokoo et al. Anesth Analg. 2004; 99:896-903; Sakai et al. Anesthesiology. 2007; 106:92-99; discussion 98-10.) Values from this scoring system correlate well with total infarct volume in rats allowed to survive 8 weeks post-MCAO (R2 value of 0.78, P=0.006, Sakai et al.) as well as 2 and 8 weeks post-MCAO (Yokoo et al.). […]
# Seventy-two hrs post-SAH, mice were neurologically evaluated as described above, with the experimenter blinded to group assignment. Normal neurologic function was scored as 0 with the maximal deficit score=48. […]
# [4] = tested on: cerebral arteries of mice post-SAH; experiment: Arterial cross-sectional diameter by intraluminal arterial casting after murine SAH; format: in vivo; details: 72 hrs post-SAH
# Procedure: Male mice (body weight=20-25 gm) were anesthetized with isoflurane and subjected to endovascular perforation of the right anterior cerebral artery just distal to the middle cerebral artery bifurcation. Mice were allowed to recover from anesthesia and randomly assigned to treatment ([…] MnTnHex-2-PyP^5+ twice per day, i.p. with treatment begun 60 min post-SAH, n=15) and vehicle (saline 0.1 ml twice a day, n=15) groups.
# The mice were anesthetized and subjected to intraluminal arterial casting for later determination of arterial cross-sectional diameter. Subarachnoid clot size was graded using a standardized scoring system.
# Three mice died in the vehicle group (2 died 3 days post-SAH, 1 died 2 days post-SAH). Neurologic scores in surviving mice and clot size were compared with the Mann-Whitney U statistic. Vessel diameters were compared with the Student's t test.
smiles,measurement,setting,value
"CCCCCC[n+]1ccccc1-c1c2nc(c(-c3cccc[n+]3CCCCCC)c3ccc([n-]3)c(-c3cccc[n+]3CCCCCC)c3nc(c(-c4cccc[n+]4CCCCCC)c4ccc1[n-]4)C=C3)C=C2.[Mn+3] [MnTnHex-2-PyP^5+, Mn(III) 5,10,15,20-tetrakis(N-n-hexylpyridinium-2-yl)porphyrin]",post-ischemic NF-κB DNA binding to a κB consensus oligo (EMSA),NF-κB,Marked reduction
same,NF-κB p65 nuclear translocation (immunoblot of nuclear samples),NF-κB p65,inhibition
same,cerebral infarct volume in the subcortex,"[1]; 225 μg/kg i.v. 5 min after reperfusion onset, then twice a day s.c., P=0.01",reduced
same,reduction in total infarct volume,"[1]; 225 μg/kg i.v. 5 min after reperfusion onset, then twice a day s.c., P=0.028",32%
same,cerebral infarct volume in the cortex,"[1]; 225 μg/kg i.v. 5 min after reperfusion onset, then twice a day s.c., P=0.05",reduced
same,cerebral infarct volume in the cortex,"[1]; 225 μg/kg intra-arterial plus s.c. 6 hrs after reperfusion onset, then twice daily s.c., P=0.01",reduced
same,reduction in total infarct volume,"[1]; 225 μg/kg intra-arterial plus s.c. 6 hrs after reperfusion onset, then twice daily s.c., P=0.03",37%
same,Infarct size in the subcortex,"[1]; 225 μg/kg intra-arterial plus s.c. 6 hrs after reperfusion onset, then twice daily s.c., P=0.58",not changed
same,Neurologic score,"[2]; 225 μg/kg i.v. 5 min after reperfusion onset, P=0.002 vs vehicle",improved
same,Neurologic score,"[2]; 225 μg/kg intra-arterial plus s.c. 6 hours after reperfusion onset, P=0.04 vs vehicle",improved
same,TNF-α concentration in brain,TNF-α,decreased
same,IL-6 concentration in brain,IL-6,decreased
same,neuroscore (median±interquartile range),"[3]; 72 hrs post-SAH, 225 mg/kg twice per day i.p. begun 60 min post-SAH, n=14, 0=no deficit, maximal deficit 48, P=0.02 vs vehicle (14±21)",2.5±9
same,deaths in treatment group,"[3]; murine SAH, 225 mg/kg twice per day i.p., n=15, three mice died in vehicle group",One mouse in the MnTnHex-2-PyP^5+ group died at 2 days post-SAH
same,right anterior cerebral artery diameter (mean±SD),"[4]; vs vehicle 82±36 μm, P=0.0005",130±19 μm
same,right middle cerebral artery diameter (mean±SD),"[4]; vs vehicle 83±33 μm, P=0.0033",123±29 μm
same,right internal carotid artery diameter (mean±SD),"[4]; vs vehicle 109±35 μm, P=0.015",143±30 μm
same,basilar artery diameter (mean±SD),"[4]; vs vehicle 198±19 μm, P=0.723, no effect of treatment",200±17 μm
